Measured values as given in publication PMC12134183, “Structural analysis of full-length human transmembrane protein 94 argues against its classification as a P-type Mg^2+ ATPase” (Cell Discovery, 2025).

Biological target: T1, TMEM94 (Homo sapiens, UniProt Q12767)
T1 construct: full-length, purified in detergent micelles; TMD extends to residue 1356; N-glycosylated
T1 sequence (Q12767 1-1356): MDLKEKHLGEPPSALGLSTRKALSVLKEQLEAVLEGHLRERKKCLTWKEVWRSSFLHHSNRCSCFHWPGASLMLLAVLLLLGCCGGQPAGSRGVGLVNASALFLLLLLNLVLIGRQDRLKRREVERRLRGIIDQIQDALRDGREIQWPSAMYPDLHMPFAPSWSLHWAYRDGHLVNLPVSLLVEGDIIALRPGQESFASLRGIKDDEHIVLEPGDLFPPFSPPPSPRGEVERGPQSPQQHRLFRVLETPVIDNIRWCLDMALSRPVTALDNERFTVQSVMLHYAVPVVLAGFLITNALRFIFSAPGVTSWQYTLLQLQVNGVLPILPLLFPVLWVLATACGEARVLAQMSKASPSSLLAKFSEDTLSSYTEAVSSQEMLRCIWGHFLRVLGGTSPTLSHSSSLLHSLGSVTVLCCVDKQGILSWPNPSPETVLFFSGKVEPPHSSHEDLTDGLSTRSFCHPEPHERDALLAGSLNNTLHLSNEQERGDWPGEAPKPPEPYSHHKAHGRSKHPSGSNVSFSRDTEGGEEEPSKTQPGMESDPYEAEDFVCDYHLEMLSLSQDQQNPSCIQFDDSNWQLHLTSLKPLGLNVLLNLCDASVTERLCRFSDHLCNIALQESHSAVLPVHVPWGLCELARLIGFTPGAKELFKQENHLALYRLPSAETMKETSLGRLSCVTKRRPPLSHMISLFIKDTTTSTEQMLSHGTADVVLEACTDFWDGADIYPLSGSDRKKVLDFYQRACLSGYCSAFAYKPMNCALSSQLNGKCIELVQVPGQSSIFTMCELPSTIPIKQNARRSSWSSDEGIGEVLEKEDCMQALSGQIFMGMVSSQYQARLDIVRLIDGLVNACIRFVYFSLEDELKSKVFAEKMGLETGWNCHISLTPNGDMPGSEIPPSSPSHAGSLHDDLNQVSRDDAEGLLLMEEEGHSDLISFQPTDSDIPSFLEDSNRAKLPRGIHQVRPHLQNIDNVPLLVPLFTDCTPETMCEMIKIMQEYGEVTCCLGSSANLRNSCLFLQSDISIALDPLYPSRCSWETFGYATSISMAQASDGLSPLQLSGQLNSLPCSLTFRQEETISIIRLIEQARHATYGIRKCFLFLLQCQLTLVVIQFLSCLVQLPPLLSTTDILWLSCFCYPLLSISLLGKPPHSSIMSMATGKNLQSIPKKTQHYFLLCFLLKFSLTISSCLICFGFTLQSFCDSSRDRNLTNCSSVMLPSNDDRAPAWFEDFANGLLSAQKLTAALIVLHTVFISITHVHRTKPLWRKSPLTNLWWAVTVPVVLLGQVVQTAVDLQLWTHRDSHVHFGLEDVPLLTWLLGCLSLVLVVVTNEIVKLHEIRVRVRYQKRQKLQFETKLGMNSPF
Assay: microscale thermophoresis (MST)
Assay type: binding

SMILES: Nc1ncnc2c1ncn2[C@@H]1O[C@H](COP(=O)(O)OP(=O)(O)CP(=O)(O)O)[C@@H](O)[C@H]1O [AMPPCP]
- Kd: 5.48 ± 1.41 µM
